Earlier results, collected in US8815261B2 (priority 2009, dated 2014).
Like-named read-outs stand apart in the source and are kept apart here.

SMILES | logP calculated value of organic acid (PubChem value, as in Example 2 (Table 4)) | logP calculated value of organic acid (PubChem value (revised on February, 2009))
O=S(=O)(O)c1ccccc1 [benzenesulfonic acid] | 0 | –
CC(=O)CCC(=O)O [levulinic acid] | – | −0.5
